We go through one molecule from article PMC6290023 (Scientific Reports, 2018).

Data set [1] in a line: Pharmacokinetics after intravenous injection 4 h after tMCAo (LC/MS/MS). In kind it is in vivo. The conditions noted are these: mouse, i.v. 2 mg/ml, 10 ml/kg in 0.45% saline. Here is the method:
MHP1-Ac or MHP1-AcN (2 mg/ml, 10 ml/kg in 0.45% saline) was administered intravenously 4 hrs after tMCAo and mouse plasma was collected at 5 min, 10 min, 20 min, 30 min, 45 min, 1 h, and 2 h after injection. Mouse plasma (C57BL6J, 10 µL) and water/phosphoric acid (24:1, v/v) (Solution B, 500 µL) were mixed together to prepare the plasma samples. The samples (510 µL) were then analyzed using LC/MS/MS to determine MHP1-Ac or MHP1-AcN in plasma. Mouse brain was weighed and mixed with a 4-fold volume of solution B and the mixture was homogenized to prepare the brain samples. The specific gravity of solution B was assumed to be 1. The brain samples (10 µL) were analyzed using LC/MS/MS to determine MHP1-Ac or MHP1-AcN in brain. MHP1-Ac and MHP1-AcN, and MHP1-N (internal standard), in the plasma samples and brain samples, were extracted using Oasis HLB μElution Plate (Waters). Chromatographic analysis was performed on an InertSustain C18 (2.1 mm I.D. ×50 mm, 3 µm, GL Sciences) column using the mobile phase A, water/formic acid (1000:1, v/v), and the mobile phase B, acetonitrile/formic acid (1000:1, v/v).

Data set [2] in a line: Safety in normal mice (blood biochemistry). In kind it is in vivo, mouse. The conditions noted are these: intravenous injection and continuous subcutaneous injection with Alzet pump, 24 h post-injection.
The test system of data set [3] is FeCl3-induced thrombosis model in CCA. Briefly: FeCl3-induced thrombosis model in CCA, thrombolysis with tPA. In kind it is in vivo. Particulars: mouse, MHP1-AcN 150 μg/mice combined with tPA 10 mg/kg, 30 min after CCA occlusion. On the procedure:
(§1) The ischemic damage was evaluated at 48 h after MCAo in sections stained with cresyl violet. Coronal sections (12 μm thickness) were made at −1.4, −0.7, 0, 0.7 and 1.4 mm from the bregma, mounted on the stereomicroscope and photographed. The volume of the infarct was calculated by the sum of each area of all sections corrected by cerebral edema and multiplied by the thickness of the slices. In the experiment of tPA-induced hemorrhage, PE10-catheter was placed in the right internal jugular vein at 6 h after ischemia. The nylon suture was then removed and 10% of the MHP-AcN mixture (150 µg/mice) and tPA (10 mg/kg) were injected followed by continuous injection of residual mixture of MHP1-AcN and tPA using a syringe pump (UNIVENTOR 400 ANAESTHESIA UNIT, ZTN, MALTA). In the experiment of FeCl3 -induced thrombosis model in CCA, a piece of filter paper soaked in 7.5% FeCl3 was placed on the right CCA for 1 min and it was rinsed with saline. Blood flow was recorded by using a laser speckle blood flow imager (OMEGAZONE OZ-2, OMEGAWAVE, INC., Tokyo, Japan). tPA (10 mg/kg) or mixture of MHP1-AcN (150 μg/mice) and tPA was started to be administered at 30 min after CCA occlusion.

The next data set concerns tPA-induced hemorrhage. In kind it is in vivo. Particulars: mouse tMCAo, MHP1-AcN 150 µg/mice combined with tPA 10 mg/kg after reperfusion at 6 h; 24 h after ischemia. Here is the method: as §1

Peptide text beside a SMILES is read from it.

For `CC[C@H](C)[C@H](NC(=O)[C@H](CO)NC(=O)[C@@H](NC(=O)[C@H](CCCCN)NC(=O)[C@@H](NC(=O)[C@@H](NC(=O)[C@H](Cc1ccc(O)cc1)NC(=O)[C@@H](NC(=O)[C@H](CCSC)NC(=O)[C@H](CC(C)C)NC(C)=O)C(C)C)C(C)C)C(C)C)[C@@H](C)O)C(=O)N[C@@H](CCCCN)C(=O)N[C@H](C(=O)N1CCC[C@H]1C(=O)N[C@@H](CO)C(=O)N[C@@H](CO)C(=O)N[C@@H](Cc1c[nH]cn1)C(=O)N[C@@H](CC(N)=O)C(=O)N[C@@H](CC(C)C)C(=O)N[C@@H](CCSC)C(=O)N[C@@H](CCCCN)C(=O)NCC(=O)NCC(=O)N[C@@H](CO)C(=O)N[C@H](C(=O)N[C@@H](CCCCN)C(=O)N[C@@H](CC(N)=O)C(=O)N[C@@H](Cc1c[nH]c2ccccc12)C(=O)N[C@@H](CO)C(=O)NCC(=O)N[C@@H](CC(N)=O)C(N)=O)[C@@H](C)O)[C@@H](C)CC` [MHP1-AcN] (Ac-LMVYVVKTSIKIPSSHNLMKGGSTKNWSGN-NH2), the level at 0.5 h in data set [1] (C57BL6J, iv, 20 mg/kg, plasma, 30 min, read-out: intact peptide in plasma 30 min post-injection) was roughly 8000 ng/mL. Besides, the “time post-injection until which peptide was detected in the brain” value in data set [1] (brain homogenate, last sampling 2 h) was determined as 2 h. Also, the blood biochemistry entry in data set [2] is “no abnormalities”. Further, in data set [3], the “effect on time of recanalization by tPA” value was “did not affect the time of recanalization”. Also, the “effect on tPA-induced hemorrhagic formation” value in the data set with tPA-induced hemorrhage is recorded as “reduced formation of hemorrhage”.
